Data: ChEMBL document CHEMBL1153890, “Total synthesis and biological evaluation of novel C2-C6 region analogues of dictyostatin” (Bioorg Med Chem, 2009)

Legend:
[1] = Growth inhibition of paclitaxel-resistant human NCI/ADR cells after 72 hrs by MTT assay; format: functional, cell-based; details: NCI/ADR-RES
PANC-1 [2] = experiment: Cell cycle arrest in human PANC1 cells assessed as accumulation at S phase at 100 nM after 24 hrs by flow cytometry; format: functional
PANC-1 [3] = experiment: Cell cycle arrest in human PANC1 cells assessed as accumulation at G1 phase at 100 nM after 24 hrs by flow cytometry; format: functional
PANC-1 [4] = experiment: Cell cycle arrest in human PANC1 cells assessed as accumulation at G2/M phase at 100 nM after 24 hrs by flow cytometry; format: functional
ASPC1 = experiment: Growth inhibition of human AsPC1 cells after 72 hrs by MTT assay; format: functional, cell-based; details: ASPC1, 72 h
PANC-1 [5] = experiment: Growth inhibition of human PANC1 cells after 72 hrs by MTT assay; format: functional, cell-based; details: PANC-1, 72 h
DLD-1 = experiment: Growth inhibition of human DLD1 cells after 72 hrs by MTT assay; format: functional, cell-based; details: DLD-1, 72 h

Row | SMILES | IC50 [1] | Activity (PANC-1 [2]) | Activity (PANC-1 [3]) | Activity (PANC-1 [4]) | IC50 (ASPC1) | IC50 (PANC-1 [5]) | IC50 (DLD-1)
1 | C=C/C=C\[C@H](C)[C@@H]1OC(=O)/C=C\C=C\[C@@H](C)[C@@H](O)C[C@H](O)/C=C\[C@H](C)[C@H](O)[C@@H](C)CCCC[C@@H](O)[C@@H]1C | 1500 nM | – | – | – | – | – | –
2 | C=C/C=C\[C@H](C)[C@@H]1OC(=O)CCCC[C@@H](C)[C@@H](O)C[C@H](O)/C=C\[C@H](C)[C@H](O)[C@@H](C)C[C@@H](C)CC[C@@H](O)[C@@H]1C | – | 9% | 6% | 84% | – | – | –
3 | C=C/C=C\[C@H](C)[C@H](O)[C@@H](C)[C@H]1CC[C@H](C)C[C@H](C)[C@@H](O)[C@@H](C)/C=C\[C@@H](O)C[C@H](O)[C@H](C)/C=C/CCC(=O)O1 | 1600 nM | – | – | – | 3.1 µM | 1300 nM | 930 nM
4 | C=C/C=C\[C@H](C)[C@@H]1OC(=O)/C=C\C=C\C[C@@H](O)C[C@H](O)/C=C\[C@H](C)[C@H](O)[C@@H](C)C[C@@H](C)CC[C@@H](O)[C@@H]1C | – | 17% | 8% | 76% | – | – | –
5 | C=C/C=C\[C@H](C)[C@@H]1OC(=O)CC/C=C/[C@@H](C)[C@@H](O)C[C@H](O)/C=C\[C@H](C)[C@H](O)[C@@H](C)C[C@@H](C)CC[C@@H](O)[C@@H]1C | – | 17% | 9% | 75% | – | – | –
6 | C=C/C=C\[C@H](C)[C@@H]1OC(=O)/C=C\C=C\[C@@H](C)[C@@H](O)C[C@H](O)/C=C\[C@H](C)[C@H](O)[C@@H](C)C[C@@H](C)CC[C@@H](O)[C@@H]1C [DICTYOSTATIN] | – | 14% | 4.2% | 82% | – | – | –
7 | C=C/C=C\[C@H](C)[C@H](O)[C@@H](C)[C@H]1CC[C@H](C)C[C@H](C)[C@@H](O)[C@@H](C)/C=C\[C@@H](O)C[C@H](O)[C@H](C)CCCCC(=O)O1 | 3100 nM | – | – | – | 4.9 µM | 3200 nM | 1500 nM
